This is an account of results in paper PMC5705213, “Immunoproteasome functions explained by divergence in cleavage specificity and regulation” (eLife, 2017).

The target in test [1] is T1, human immunoproteasome core particle (i20S) (Homo sapiens, UniProt P20618+P28062).
T1 construct: purchased Boston Biochem E-370
In words: Purified proteasome activity assay with fluorogenic substrates, SDS-activated i20S. It counts as biochemical. As to the method: Non-prime-side substrate specificity profiling was performed with a complete, diverse library of 160,000 fluorogenic substrates containing the general structure acetyl-P4-P3-P2-P1-(7-amino-4-carbamoylmethylcourmarin, ACC) ([Harris et al., 2000]). For each sub-library, 10 nM human i20S or c20S underwent SDS pre-activation for 1 hr at room temperature in assay buffer (20 mM Tris, pH 8.0, 0.5 mM EDTA) containing 0.03% SDS. […] Activity assays were carried out over 1 hr following two-fold sample dilution in the same 0.03% SDS-containing buffer that also contained a 250 μM final concentration of PS-SCL substrate pool. Activity was recorded in black 96-well round bottom plates (Costar, COrning, NY) using a BioTek Synergy H4 Hybrid Multi-Mode Microplate Reader set to λex = 380 nm and λem = 460 nm (gain = 63). Initial velocity in relative fluorescence units per second (RFU/s) was calculated using a linear fit of the progress curves with Gen5 software v.2.03.
Activity assays with individual fluorogenic substrates were carried out as described above for the PS-SCL assays using final concentrations of 5 nM SDS-activated i20S or c20S and 10 μM substrate except where noted below. The commercial substrates Suc-LLVY-AMC, Ac-WLA-AMC (Boston Biochem, S-330), and Ac-ANW-AMC (Boston Biochem, S-320) were used as supplied. To convert cleaved substrate RFU to free AMC or ACC dye concentration, calibration curves were prepared through total enzymatic hydrolysis of ACC- or AMC-containing peptides that had been quantified through amino acid analysis (Alphalyse, Inc.). Substrate selectivity of PA28α- and SDS-activated 20S proteasomes was compared following 1 hr pre-incubation at room temperature either in the presence of 0.03% SDS or with 12 molar equivalents of PA28α activator in the absence of SDS. For substrate selectivity assays with mixed, purified proteasomes, i20S and c20S underwent individual SDS pre-activation prior to assaying with 5 nM final concentration of pooled 20S. Proteasome ratio assays were performed with 10 μM EWFW-ACC, 30 μM iso-VQA-ACC, and 30 μM Suc-LLVY-AMC. All activity measurements were recorded on the BioTek plate reader described above using λex = 380 nm and λem = 460 nm (gain = 63) for ACC substrates and Suc-LLVY-AMC; 345 nm and λem = 445 nm (gain = 63) for Ac-WLA-AMC and Ac-ANW-AMC; and λex = 328 nm and λem = 393 nm (gain = 75) for the GEWHWPS IQ substrate. Michaelis-Menten calculations were performed using a non-linear fit in Prism v.6.0.

The next test has as its target T2, β5 (Homo sapiens, UniProt P20618+P28074).
T2 construct: For IC50 measurements with the MOLT-4 lysate; endogenous in cells; host or cells: MOLT-4 lysate
In words: MOLT-4 lysate proteasome activity assay, IC50, iso-VQA-ACC substrate. It counts as biochemical. As to conditions: commercial β5 substrate. As to the method:
Three lysates containing varied proteasome ratios (whole blood, PBMCs, and the MOLT-4 cell line) were assayed in the absence or presence of proteasome inhibitors as described above. Lysates were generated by washing cells in PBS and lysing the resulting cell pellet in a two-fold greater volume of cold lysis buffer (20 mM Tris, pH 8.0, 5 mM EDTA). Total protein concentration was determined using the BCA Protein Assay Kit (Thermo Scientific Pierce) with bovine serum albumin (BSA) as the protein standard.

In another test the test system is LMP7 / β5. In words: MOLT-4 lysate proteasome activity assay, IC50, LLVY-AMC substrate. It counts as biochemical, human. The settings on record: 1 hr pre-incubation, 30 μM Suc-LLVY-AMC, read-out: IC50, detection method LLVY-AMC, subunit LMP7 / β5. The method, then: Three lysates containing varied proteasome ratios (whole blood, PBMCs, and the MOLT-4 cell line) were assayed in the absence or presence of proteasome inhibitors as described above. Lysates were generated by washing cells in PBS and lysing the resulting cell pellet in a two-fold greater volume of cold lysis buffer (20 mM Tris, pH 8.0, 5 mM EDTA). Total protein concentration was determined using the BCA Protein Assay Kit (Thermo Scientific Pierce) with bovine serum albumin (BSA) as the protein standard. […] Activity assays were carried out over 1 hr following two-fold sample dilution in the same assay buffer containing final concentrations of 10 μM NH2-EWFW-ACC, 30 μM iso-VQA-ACC, or 30 μM Suc-LLVY-AMC. Activity measurements were recorded on the BioTek plate reader described above in 384-well plates using either λex = 380 nm and λem = 460 nm (gain = 85) for the ACC substrates or λex = 345 nm and λem = 445 nm (gain = 85) for the AMC substrate.

Test [2] relates to SUP-B15 cell line. Kind of test: Ubiquitin western blot after one-hour inhibitor pulse treatment. It counts as cell-based, human. As to conditions: ONX 0914 200 nM or PR-825 100 or 125 nM. As to the method:
(§1) SUP-B15 and MOLT-4 cells were seeded at 2 × 10^6/mL in RPMI media containing 10% FBS 24 hr prior to inhibition assays; PBMC vials were thawed and seeded at 4.4 × 10^6/mL in RPMI media with 10% FBS 3 hr prior to inhibition assays. Cells were diluted 2-fold with serum-free RPMI media containing 2X inhibitor or vehicle control (0.5% DMSO and 5% FBS final). Inhibitor treatments were carried out for 1 hr at 37°C, and to remove unbound inhibitor, cells were immediately washed three times (SUP-B15 and PBMCs) or six times (MOLT-4) with D-PBS for 1 hr time points or RPMI media containing 5% FBS for subsequent time points. Cells were incubated at 37°C for the duration of the time course and washed two times in D-PBS to remove serum upon harvest. The cell pellets were flash-frozen in liquid N2 prior to storage at −80°C.
(§2) Cell pellets were thawed and incubated for 30 min on ice in non-denaturing lysis buffer (20 mM Tris, pH 8.0, 5 mM EDTA) or RIPA buffer that contained cOmplete^TM EDTA-free inhibitor cocktail (Roche, Pleasanton, CA). Total protein concentration in supernatants was determined using a Bradford Protein Assay Kit (Thermo Scientific Pierce) or BCA Protein Assay Kit (Cell Signaling Technology), respectively, with BSA as the protein standard. Lysate activity assays were performed following 2-fold dilution of 0.1–0.4 mg/mL lysate into assay buffer as described above. […]
(In general: A western blot detects proteins with antibodies after separation by electrophoresis.)

Test [3] concerns SUP-B15 cell line. Kind of test: Cellular proteasome inhibition and recovery assay, SUP-B15. It counts as cell-based, human. The settings on record: SUP-B15, one-hour pulse, 24 hr time course. The method, then: as §1, §2
The test system of another test is primary human PBMCs. In words: Cellular proteasome inhibition and recovery assay, PBMCs. The settings on record: primary human PBMCs from healthy donors, one-hour pulse, 24 hr. In kind it is cell-based. As to the method:
as §1, §2

The next test relates to PSMB8 (LMP7) mRNA. Kind of test: qRT-PCR of PSMB8 (LMP7) mRNA after ONX 0914 pulse treatment. In kind it is cell-based, human. The settings on record: SUP-B15, MOLT-4 and PBMCs after one-hour pulse, normalized to GAPDH. As to the method: as §1
Total RNA was extracted from cells using the RNeasy Plus Mini kit (Qiagen, Germantown, MD). The quantity and quality of RNA was confirmed by absorption measurements at 260 and 280 nm. […] Efficiencies for each primer/probe set were calculated from a serial dilution of Human Reference Total RNA (Agilent) and were >95%. Relative quantification of gene expression was calculated with the comparative cycle threshold method, normalizing for GAPDH expression levels.
(In qPCR the cycle at which signal appears reflects the starting amount.)

The subject of a further test is Nrf1. In words: Nrf1 western blot after ONX 0914 pulse treatment. As to conditions: RIPA lysates from the cell lines and PBMCs. It counts as cell-based, human. The method, then:
as §1, §2

The subject of test [4] is rheumatoid arthritis mouse model. Set-up: method as in Muchamuel et al., 2009. The settings on record: at a significantly lower dose than bortezomib or CFZ; ref Muchamuel et al., 2009; cited from earlier work.
The mark [5] stands for this setting: iP over cP, Michaelis-Menten analysis.

*1 amine or outer side, *2 acyl side, *3 side chain or, on linkers, in order; H or OH if unused. Where a SMILES comes first, the peptide text is derived from it. The star is where a group is joined. ACC = NC(=O)Cc1cc(=O)oc2cc(N*)ccc12; AMC = Cc1cc(=O)oc2cc(N*)ccc12; Suc = O=C(CCC(=O)[*:2])[*:1]

`Cc1cc(=O)oc2cc(NC(=O)[C@H](Cc3ccc(O)cc3)NC(=O)[C@@H](NC(=O)[C@H](CC(C)C)NC(=O)[C@H](CC(C)C)NC(=O)CCC(=O)O)C(C)C)ccc12` [LLVY-AMC] (Suc-LLVY-{AMC}): the “selectivity at Vmax” value in test [1] (iP and cP, direction not given) came out at 2.0 fold. Moreover, the “ability to distinguish iP and cP in defined mixtures of each proteasome” value in [1] (mixed ratios of purified proteasomes, 30 μM substrate) was “unable to distinguish between the two proteasomes”.

As to `NC(=O)Cc1cc(=O)oc2cc(NC(=O)[C@H](Cc3c[nH]c4ccccc34)NC(=O)[C@H](Cc3c[nH]cn3)NC(=O)[C@H](Cc3c[nH]c4ccccc34)NC(=O)[C@@H](N)CCC(=O)O)ccc12` [EWHW-ACC] (H-EWHW-{ACC}), in [1], the “Ratio Vmax (i20S/c20S)” value amounted to 6.0 and the “Ratio kcat/Km (i20S/c20S)” value is reported as 8.4. Besides, in test [1] (iP over cP, 10 μM substrate concentration), the iP selectivity is 4.5 fold. Besides, the “selectivity at Vmax” value in test [1] (setting [5]) was found to be 6 fold.

Regarding Ac-Trp-Leu-Ala-{AMC}, the “detection of β5 activity in MOLT-4 lysate” value on β5 is recorded as “unable to specifically detect proteasome activity”.

Consider `CC(C)C[C@H](NC(=O)[C@H](CCc1ccccc1)NC(=O)CN1CCOCC1)C(=O)N[C@@H](Cc1ccccc1)C(=O)N[C@@H](CC(C)C)C(=O)[C@@]1(C)CO1` [CFZ, carfilzomib], for which, in the test on LMP7 / β5, the IC50 amounted to 53 nM.

For `COc1ccc(C[C@H](NC(=O)[C@H](C)NC(=O)CN2CCOCC2)C(=O)N[C@@H](Cc2ccccc2)C(=O)[C@]2(C)CO2)cc1` [ONX 0914], the IC50 with LMP7 / β5 came to 256 nM. Besides, in the test on SUP-B15 cell line [2], the “global ubiquitinated protein level (immunoblot)” value was “global accumulation of ubiquitinated protein”. For the same compound, the “recovery of LMP7 activity after irreversible inhibition” value is on record as “rapid recovery” in the test with SUP-B15 cell line [3] and “confirmed in primary human PBMCs” in the test on primary human PBMCs. The “PSMB8 mRNA level” value in the test with PSMB8 (LMP7) mRNA is on record as “increased PSMB8 mRNA levels”. Also, the “processed Nrf1 (p110) level (western blot)” value with Nrf1 is listed as “accumulation of processed Nrf1 (p110)”. Also, in test [4], the disease progression result was “attenuate disease progression”.

Turning to `Cc1cc(C(=O)N[C@H](C(=O)N[C@@H](CCC(N)=O)C(=O)N[C@@H](C)C(=O)Nc2ccc3c(CC(N)=O)cc(=O)oc3c2)C(C)C)no1` [iso-VQA-ACC], in test [1], the “Ratio Vmax (i20S/c20S)” value is given as 0.28 and the “Ratio kcat/Km (i20S/c20S)” value turned out to be 0.33.

For the compound `NC(=O)Cc1cc(=O)oc2cc(NC(=O)[C@H](Cc3c[nH]c4ccccc34)NC(=O)[C@H](Cc3ccccc3)NC(=O)[C@H](Cc3c[nH]c4ccccc34)NC(=O)[C@@H](N)CCC(=O)O)ccc12` [EWFW-ACC] (H-EWFW-{ACC}), the “improvement in Km for the iP” value in [1] (compared to the parent substrate EWHW-ACC) is given as 7 fold. In test [1], the “Ratio Vmax (i20S/c20S)” value stood at 16 and the “Ratio kcat/Km (i20S/c20S)” value came out at 4.0. Also, the “selectivity at Vmax” value in [1] (setting [5]) is given as 16 fold.

For `CC(=O)N[C@@H](C)C(=O)N[C@@H](CC(N)=O)C(=O)N[C@@H](Cc1c[nH]c2ccccc12)C(=O)Nc1ccc2c(C)cc(=O)oc2c1` [Ac-ANW-AMC] (Ac-Ala-Asn-Trp-{AMC}), in test [1], the “Ratio Vmax (i20S/c20S)” value was found to be 12 and the “Ratio kcat/Km (i20S/c20S)” value amounted to 6.0.
